Read-outs that look alike come from different tables or passages of the source.
Assays:
[1] = system: Key Grass and Sedge Weeds as well as Grass Crops; assay: Post-emergent Test II herbicidal activity (Table 6); format: in vivo; settings: post-emergence, 336 h; for pest or weed control at 70 g/ha: application rate 70 g ai/ha; for pest or weed control at 140 g/ha: application rate 140 g ai/ha
How it was run: (§1)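 Test species were raised 7–21 d under greenhouse conditions until reaching the first or second true leaf, sprayed with formulated compound at 187 L/ha, and kept subirrigated to avoid wash-off. Fourteen days later, damage was rated visually on a 0–100% scale against untreated plants.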

[2] = system: Key Broadleaf Weed and Crop Species; assay: Post-emergent Test II herbicidal activity (Table 5); format: in vivo; settings: post-emergence, 336 h, post-emergent, 14 days after application; for pest or weed control at 70 g/ha: 70 g ai/ha; for pest or weed control at 140 g/ha: 140 g ai/ha
How it was run: as §1

[3] = CYPES: yellow nutsedge (Cyperus esculentus), read-out: Visual Growth Reduction (%) 14 Days After Application, CYPES
[4] = DIGSA: crabgrass (Digitaria sanguinalis), read-out: Visual Growth Reduction (%) 14 Days After Application, DIGSA
[5] = ECHCG: barnyardgrass (Echinochloa crus-galli), read-out: Visual Growth Reduction (%) 14 Days After Application, ECHCG
[6] = ORYSA: rice (Oryza sativa), read-out: Visual Growth Reduction (%) 14 Days After Application, ORYSA
[7] = SETFA: giant foxtail (Setaria faberi), read-out: Visual Growth Reduction (%) 14 Days After Application, SETFA
[8] = SORVU: grain sorghum (Sorghum vulgare), read-out: Visual Growth Reduction (%) 14 Days After Application, SORVU
[9] = TRZSS (wheat, Triticum aestivum), read-out: Visual Growth Reduction (%) 14 Days After Application, TRZSS
[10] = ZEAMX: maize, corn (Zea mays), read-out: Visual Growth Reduction (%) 14 Days After Application, ZEAMX
[11] = ABUTH: velvetleaf (Abutilon theophrasti), read-out: Visual Growth Reduction (%) 14 Days After Application ABUTH
[12] = AMARE: redroot pigweed (Amaranthus retroflexus), read-out: Visual Growth Reduction (%) 14 Days After Application AMARE
[13] = BRSNN: oilseed-rape, canola (Brassica napus), read-out: Visual Growth Reduction (%) 14 Days After Application BRSNN
[14] = CHEAL: lambsquarters (Chenopodium album), read-out: Visual Growth Reduction (%) 14 Days After Application CHEAL
[15] = EPHHL: wild poinsettia (Euphorbia heterophylla), read-out: Visual Growth Reduction (%) 14 Days After Application EPHHL
[16] = HELAN: sunflower (Helianthus annuus), read-out: Visual Growth Reduction (%) 14 Days After Application HELAN
[17] = VIOTR: wild pansy (Viola tricolor), read-out: Visual Growth Reduction (%) 14 Days After Application VIOTR

melting point: 187 to 190 °C
SMILES: C=Cc1c(N)nc(-c2ccc(I)cc2)nc1C(=O)O [Compound 123, 6-Amino-2-(4-iodophenyl)-5-vinylpyrimidine-4-carboxylic acid]
pest or weed control at 70 g/ha [1, 3]: 0 to 29%
pest or weed control at 140 g/ha [1, 3]: 45 to 59%
pest or weed control at 70 g/ha [1, 4]: 0 to 29%
pest or weed control at 140 g/ha [1, 4]: 0 to 29%
pest or weed control at 70 g/ha [1, 5]: 75 to 84%
pest or weed control at 140 g/ha [1, 5]: 85 to 94%
pest or weed control at 70 g/ha [1, 6]: 0 to 29%
pest or weed control at 140 g/ha [1, 6]: 0 to 29%
pest or weed control at 70 g/ha [1, 7]: 0 to 29%
pest or weed control at 140 g/ha [1, 7]: 0 to 29%
pest or weed control at 70 g/ha [1, 8]: 30 to 44%
pest or weed control at 140 g/ha [1, 8]: 30 to 44%
pest or weed control at 70 g/ha [1, 9]: 0 to 29%
pest or weed control at 140 g/ha [1, 9]: 0 to 29%
pest or weed control at 70 g/ha [1, 10]: 45 to 59%
pest or weed control at 140 g/ha [1, 10]: 60 to 74%
pest or weed control at 70 g/ha [2, 11]: 0 to 29%
pest or weed control at 140 g/ha [2, 11]: 0 to 29%
pest or weed control at 70 g/ha [2, 12]: 95 to 100%
pest or weed control at 140 g/ha [2, 12]: 95 to 100%
pest or weed control at 70 g/ha [2, 13]: 0 to 29%
pest or weed control at 140 g/ha [2, 13]: 60 to 74%
pest or weed control at 70 g/ha [2, 14]: 0 to 29%
pest or weed control at 140 g/ha [2, 14]: 0 to 29%
pest or weed control at 70 g/ha [2, 15]: 95 to 100%
pest or weed control at 140 g/ha [2, 15]: 95 to 100%
pest or weed control at 70 g/ha [2, 16]: 75 to 84%
pest or weed control at 140 g/ha [2, 16]: 75 to 84%
pest or weed control at 70 g/ha [2, 17]: 0 to 29%
pest or weed control at 140 g/ha [2, 17]: 45 to 59%
